Measurements: US20240366739A1, “MEDICAMENT FOR TREATMENT AND/OR PREVENTION OF CANCER” (TORAY INDUSTRIES, INC., priority 2021, published 2024)

Tested on: mouse lymphoma cell line EG7 (OVA-expressing cancer cells) subcutaneously transplanted
Assay: in vivo antitumor effect in cancer-bearing mice (tumor volume measured with calipers)
Conditions: Example 6; C57BL/6NCR mice with EG7 tumors; particle 0.5 mg s.c. once a week x2 from day 7; Poly(I:C) 50 μg into tumors twice a week x4; mixture given s.c.

Poly(I:C)
tumor growth / regression (tumor volume): not changed compared to negative controls
